Test in all cases: inhibition of tumour cell growth, NCI panel, 48 h
Test [1] deals with U-251.
Test [2] has as its system SW-620.
Test [3] has as its system MDA-N.
For test [4], the system named is HT-29.
The test system of test [5] is UACC-257.
The subject of test [6] is HCC 2998.
The subject of test [7] is A549.
The subject of test [8] is SR.
Test [9] concerns COLO 205.
Test [10] deals with OVCAR-8.
Test [11] deals with OVCAR-5.
Test [12] relates to NCI-H226.
The test system of test [13] is KM12.
For test [14], the system named is SNB-19.
For test [15], the system named is Hs-578T.
Test [16] concerns OVCAR-3.
Test [17] relates to A498.
For test [18], the system named is NCI/ADR-RES.
For test [19], the system named is UO-31.
In test [20] the test system is SK-MEL-5.

The structures appear in SMILES notation.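 Step 1: Grow cells in 96-well plates. Step 2: Expose to compound for 48 hours at 5 concentrations. Step 3: Interpolate endpoints linearly; if unreached, use highest concentration. At the GI50, growth is halved.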 Activity calls are given as the source filed them. No stated cut-off is given here; in the data, active = GI50 up to about 1.1 µM and inactive = higher. Where only a bound is given, the exact number is not on record here.

Regarding `CC1=C2CC(C)(C)/C=C\C(=O)/C(C)=C\C3=C[C@H](C)C[C@]3(O2)C1=O`, the GI50 in [1] was 3.86 µM (inactive); in test [2], 0.41 µM (active); in test [3] it was 0.914 µM (active); in [4], 0.927 µM (active); in test [5], 1.14 µM (inactive); in test [6], 4.85 µM (inactive). Moreover, the GI50 in test [7] is 4.47 µM (inactive); in test [8] it was 0.243 µM (active); in test [9] it was 0.902 µM (active); in test [10] it was 0.9 µM (active); in test [11] it was 1.32 µM (inactive); in test [12] it was 3.46 µM (inactive). In addition, the GI50 in test [13] is 2.21 µM (inactive); in test [14], 17.2 µM (inactive); in test [15], 2.26 µM (inactive); in [16], 0.376 µM (active); in test [17], 4.67 µM (inactive); in [18], 0.537 µM (active). The GI50 is 1.18 µM (inactive) in test [19] and 1.48 µM (inactive) in test [20].
`C/N=C/N(C)c1c2ccccc2nc2ccccc12`: the GI50 in test [1], in [2], in [3], in test [4], in test [5] and in [6] was > 100 µM (inactive) each time. Also, the GI50 in test [7], in [8], in test [9], in test [10], in test [11] and in test [12] was > 100 µM (inactive) throughout. Besides, the GI50 in [13], in test [14], in test [15], in [16], in test [17] and in [18] was > 100 µM (inactive) each time. In addition, the GI50 in [19] is 11.6 µM (inactive); in [20], > 100 µM (inactive).

Source of the values: ChEMBL document CHEMBL1201862, “PubChem BioAssay data set” (2004).
